# Data as given in ChEMBL document CHEMBL1201862, “PubChem BioAssay data set” (2004).
# Activity calls are given as the source filed them.
# Assays:
# [1] = molecular target: T1, Calpain-2 catalytic subunit (Sus scrofa, UniProt P43367); assay: m-calpain protease blockers, concentration series – biochemical, fluorogenic peptide substrate, dose response (AID 1420); type: functional
# T1 sequence (P43367 whole entry): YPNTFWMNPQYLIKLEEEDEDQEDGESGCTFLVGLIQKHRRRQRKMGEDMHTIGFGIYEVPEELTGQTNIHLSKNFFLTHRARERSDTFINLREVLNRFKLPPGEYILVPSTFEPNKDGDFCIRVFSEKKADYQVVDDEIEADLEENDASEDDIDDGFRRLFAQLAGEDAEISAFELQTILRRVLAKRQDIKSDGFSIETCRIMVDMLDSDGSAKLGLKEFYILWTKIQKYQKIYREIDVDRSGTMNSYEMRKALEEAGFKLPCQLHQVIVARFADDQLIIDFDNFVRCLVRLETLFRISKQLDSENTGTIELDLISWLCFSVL
# [2] = molecular target: FAD-linked sulfhydryl oxidase ALR (Homo sapiens, UniProt P55789); assay: ALR-catalysed DTT oxidation blockers – biochemical, H2O2 detection, luminescence, cherry-pick, dose response (AID 493248)
# FAD-linked sulfhydryl oxidase ALR, sequence (P55789 whole entry): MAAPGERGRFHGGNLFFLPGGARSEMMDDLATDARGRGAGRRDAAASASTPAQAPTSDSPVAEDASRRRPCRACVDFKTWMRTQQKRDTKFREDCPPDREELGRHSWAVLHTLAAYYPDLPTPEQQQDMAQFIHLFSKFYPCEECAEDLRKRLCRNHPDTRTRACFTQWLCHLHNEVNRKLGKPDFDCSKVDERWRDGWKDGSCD
# [3] = molecular target: T2, Sentrin-specific protease 6 (Homo sapiens, UniProt Q9GZR1); type: functional;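 also: Luminescence-based dose-response confirmatory assay of SENP6 inhibition, following up an ultra-high-throughput screen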
# T2 sequence (Q9GZR1 whole entry): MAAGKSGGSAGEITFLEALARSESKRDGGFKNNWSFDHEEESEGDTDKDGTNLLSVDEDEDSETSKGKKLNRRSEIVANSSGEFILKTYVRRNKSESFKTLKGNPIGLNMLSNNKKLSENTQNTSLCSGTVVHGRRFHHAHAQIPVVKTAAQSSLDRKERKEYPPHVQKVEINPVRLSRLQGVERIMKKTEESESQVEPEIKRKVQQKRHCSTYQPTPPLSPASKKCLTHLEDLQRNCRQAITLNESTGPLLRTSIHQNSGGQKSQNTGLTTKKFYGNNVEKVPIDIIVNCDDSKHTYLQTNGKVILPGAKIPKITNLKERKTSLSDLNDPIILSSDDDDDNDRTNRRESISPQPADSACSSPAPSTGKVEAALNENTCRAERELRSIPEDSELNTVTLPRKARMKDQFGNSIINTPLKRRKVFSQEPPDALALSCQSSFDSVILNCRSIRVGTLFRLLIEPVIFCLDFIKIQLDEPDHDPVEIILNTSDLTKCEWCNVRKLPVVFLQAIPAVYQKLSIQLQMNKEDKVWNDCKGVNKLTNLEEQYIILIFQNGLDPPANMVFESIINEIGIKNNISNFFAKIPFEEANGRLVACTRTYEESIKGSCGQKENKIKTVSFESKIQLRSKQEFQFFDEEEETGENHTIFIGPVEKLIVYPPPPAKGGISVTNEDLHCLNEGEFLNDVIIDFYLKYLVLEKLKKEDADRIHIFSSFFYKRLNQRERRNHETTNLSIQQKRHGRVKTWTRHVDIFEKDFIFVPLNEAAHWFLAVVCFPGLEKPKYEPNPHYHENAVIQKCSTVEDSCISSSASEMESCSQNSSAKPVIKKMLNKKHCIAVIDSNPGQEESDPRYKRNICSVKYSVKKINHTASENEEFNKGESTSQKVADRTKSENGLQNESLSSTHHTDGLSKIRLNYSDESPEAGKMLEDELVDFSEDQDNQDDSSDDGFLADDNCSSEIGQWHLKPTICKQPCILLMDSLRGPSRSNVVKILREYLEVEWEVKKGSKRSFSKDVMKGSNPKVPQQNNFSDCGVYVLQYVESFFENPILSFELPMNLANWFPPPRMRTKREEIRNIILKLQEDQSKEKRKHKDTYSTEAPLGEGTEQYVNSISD
# Caspase-3 = molecular target: T3, Caspase-3 (Homo sapiens, UniProt P42574); type: functional;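 also: Dose-response selectivity test against caspase-3 for candidate inhibitors of sentrin-specific proteases (SENPs)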
# T3 sequence (P42574 whole entry): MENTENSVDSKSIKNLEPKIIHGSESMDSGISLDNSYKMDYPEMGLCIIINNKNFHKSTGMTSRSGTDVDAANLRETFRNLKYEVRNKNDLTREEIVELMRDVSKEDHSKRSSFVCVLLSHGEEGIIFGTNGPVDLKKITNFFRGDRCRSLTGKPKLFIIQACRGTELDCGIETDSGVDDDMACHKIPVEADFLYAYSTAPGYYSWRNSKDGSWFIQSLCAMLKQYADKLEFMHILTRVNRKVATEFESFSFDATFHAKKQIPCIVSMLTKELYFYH
# [4] = molecular target: T4, Sentrin-specific protease 8 (Homo sapiens, UniProt Q96LD8); type: functional;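 also: luminescence read-out of SENP8 inhibition, dose-response confirmation following an ultra-high-throughput screen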
# T4 sequence (Q96LD8 whole entry): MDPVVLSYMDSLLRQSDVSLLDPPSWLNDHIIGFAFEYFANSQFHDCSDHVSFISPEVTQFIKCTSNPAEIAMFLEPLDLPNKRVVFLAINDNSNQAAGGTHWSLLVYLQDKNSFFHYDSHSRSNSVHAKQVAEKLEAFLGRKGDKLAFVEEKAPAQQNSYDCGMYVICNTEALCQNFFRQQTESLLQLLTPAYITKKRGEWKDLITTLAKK
# [5] = molecular target: T5, Sentrin-specific protease 7 (Homo sapiens, UniProt Q9BQF6); type: functional;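 also: Luminescence-based dose-response confirmation of ultra-high-throughput screening hits, measuring inhibition of SENP7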
# T5 sequence (Q9BQF6 whole entry): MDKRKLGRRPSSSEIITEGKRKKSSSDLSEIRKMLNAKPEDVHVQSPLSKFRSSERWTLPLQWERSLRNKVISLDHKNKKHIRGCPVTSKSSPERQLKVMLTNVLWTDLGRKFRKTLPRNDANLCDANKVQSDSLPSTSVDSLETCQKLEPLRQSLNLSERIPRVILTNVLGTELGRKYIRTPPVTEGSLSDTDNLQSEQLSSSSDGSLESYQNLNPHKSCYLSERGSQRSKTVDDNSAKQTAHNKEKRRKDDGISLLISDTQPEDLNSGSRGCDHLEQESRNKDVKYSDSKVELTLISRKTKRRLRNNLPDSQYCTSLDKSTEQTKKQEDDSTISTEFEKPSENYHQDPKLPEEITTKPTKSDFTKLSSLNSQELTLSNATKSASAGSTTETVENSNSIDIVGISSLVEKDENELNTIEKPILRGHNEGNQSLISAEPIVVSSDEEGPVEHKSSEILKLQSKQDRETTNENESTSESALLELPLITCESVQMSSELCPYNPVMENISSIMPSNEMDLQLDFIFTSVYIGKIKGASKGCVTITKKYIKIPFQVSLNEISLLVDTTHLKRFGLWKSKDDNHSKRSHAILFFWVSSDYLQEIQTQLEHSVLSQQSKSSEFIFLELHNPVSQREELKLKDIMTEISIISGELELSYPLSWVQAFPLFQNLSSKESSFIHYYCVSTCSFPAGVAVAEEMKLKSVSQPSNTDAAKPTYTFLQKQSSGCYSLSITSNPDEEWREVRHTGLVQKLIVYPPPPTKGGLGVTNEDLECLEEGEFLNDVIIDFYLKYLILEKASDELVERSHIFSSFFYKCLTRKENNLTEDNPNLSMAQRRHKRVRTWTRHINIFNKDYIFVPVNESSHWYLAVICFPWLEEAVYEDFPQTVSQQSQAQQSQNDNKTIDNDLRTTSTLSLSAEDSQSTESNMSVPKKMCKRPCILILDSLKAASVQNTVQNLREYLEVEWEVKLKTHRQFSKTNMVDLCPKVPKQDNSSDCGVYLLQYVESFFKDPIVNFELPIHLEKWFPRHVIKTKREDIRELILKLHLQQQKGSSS
# [6] = molecular target: T6, Polyadenylate-binding protein 1 (Homo sapiens, UniProt P11940); assay: MLLE binding blockers, Cy5 peptide tracer – biochemical, fluorescence polarization, Cy5-PAM2 peptide, secondary, miRNA deadenylation inhibitor project, dose response (AID 602260); type: functional; conditions: read-out: IC50_Mean
# T6 sequence (P11940 whole entry, the tested form may be a part): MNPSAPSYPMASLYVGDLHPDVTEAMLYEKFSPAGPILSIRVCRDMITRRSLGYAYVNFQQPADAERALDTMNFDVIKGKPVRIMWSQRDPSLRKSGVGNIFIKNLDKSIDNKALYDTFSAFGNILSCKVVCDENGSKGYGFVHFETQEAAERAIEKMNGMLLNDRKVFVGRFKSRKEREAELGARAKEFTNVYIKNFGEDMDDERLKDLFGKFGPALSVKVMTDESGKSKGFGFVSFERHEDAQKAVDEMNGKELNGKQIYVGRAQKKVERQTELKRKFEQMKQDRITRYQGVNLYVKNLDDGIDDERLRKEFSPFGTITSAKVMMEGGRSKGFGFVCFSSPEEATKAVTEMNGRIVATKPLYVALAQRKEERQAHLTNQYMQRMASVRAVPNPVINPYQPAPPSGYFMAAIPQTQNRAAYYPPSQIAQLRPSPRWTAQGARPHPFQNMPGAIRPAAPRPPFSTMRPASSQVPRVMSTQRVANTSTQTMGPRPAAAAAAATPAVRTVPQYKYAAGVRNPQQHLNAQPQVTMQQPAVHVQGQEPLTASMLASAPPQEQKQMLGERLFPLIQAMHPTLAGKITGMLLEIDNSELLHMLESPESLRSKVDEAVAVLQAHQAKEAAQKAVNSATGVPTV
# [7] = molecular target: T6, Polyadenylate-binding protein 1; assay: MLLE domain peptide-binding blockers, IC50 – biochemical, fluorescence polarization, FITC-PAM2 peptide, dose response (AID 602259); type: functional; conditions: read-out: IC50_Mean
# [8] = molecular target: T7, Mannose-6-phosphate isomerase (Homo sapiens, UniProt P34949); assay: MPI inhibition at elevated mannose 6-phosphate – biochemical, fluorescence intensity, high mannose 6-phosphate, primary screen (AID 1220)
# T7 sequence (P34949 whole entry): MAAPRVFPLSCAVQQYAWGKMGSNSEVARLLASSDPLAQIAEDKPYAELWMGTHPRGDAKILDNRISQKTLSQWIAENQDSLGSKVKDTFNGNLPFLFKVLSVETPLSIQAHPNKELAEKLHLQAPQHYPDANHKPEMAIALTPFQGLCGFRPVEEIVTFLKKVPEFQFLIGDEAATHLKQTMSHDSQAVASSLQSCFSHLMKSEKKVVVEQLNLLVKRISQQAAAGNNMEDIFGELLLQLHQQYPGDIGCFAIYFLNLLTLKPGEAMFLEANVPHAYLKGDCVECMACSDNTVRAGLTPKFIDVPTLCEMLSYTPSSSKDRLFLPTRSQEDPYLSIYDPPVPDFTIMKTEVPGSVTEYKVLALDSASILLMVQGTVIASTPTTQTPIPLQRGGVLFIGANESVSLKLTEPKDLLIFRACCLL
# [9] = fluconazole-exposed Candida albicans growth modulators – fluorescence, retest, confirmation (AID 2467); type: functional, cell-based
# [10] = NIH-3T3 fibroblast cytotoxicity, dose response, cytotoxicity control, cell-based, fluorescence, Alamar Blue, secondary assay (AID 2327); type: functional;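 also: NIH-3T3 mouse fibroblasts cultured with fluconazole at 8 µg/mL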
# Paired box protein Pax-8 = Paired box protein Pax-8 (Homo sapiens, UniProt Q06710); assay: PAX8 transcriptional activity inhibition in RMG-I – RMG-I cells, luciferase, cherry-pick, dose response (AID 687027); type: functional, cell-based;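 also: luciferase reporter driven by Pax8 target thyroperoxidase promoter measured by SteadyGlo luminescence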
# Paired box protein Pax-8, sequence (Q06710 whole entry): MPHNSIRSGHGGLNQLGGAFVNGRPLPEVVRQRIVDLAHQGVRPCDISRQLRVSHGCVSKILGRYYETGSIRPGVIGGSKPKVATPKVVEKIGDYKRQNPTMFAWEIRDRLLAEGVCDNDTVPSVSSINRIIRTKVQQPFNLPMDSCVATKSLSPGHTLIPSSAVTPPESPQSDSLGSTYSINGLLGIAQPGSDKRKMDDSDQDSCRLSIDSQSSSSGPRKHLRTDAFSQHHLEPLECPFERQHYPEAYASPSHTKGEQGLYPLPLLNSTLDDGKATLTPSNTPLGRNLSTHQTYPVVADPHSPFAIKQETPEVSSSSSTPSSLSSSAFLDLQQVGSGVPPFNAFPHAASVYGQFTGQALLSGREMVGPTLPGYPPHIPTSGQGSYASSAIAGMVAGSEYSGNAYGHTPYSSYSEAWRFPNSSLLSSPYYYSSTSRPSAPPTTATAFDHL
# [11] = OVCAR-3 cell viability loss – plate reader, dry powder samples, PAX8 inhibitor project, dose response (AID 743044); type: functional, cell-based
# [12] = P. falciparum Dd2 growth inhibitors, dose response, SYBR Green, cherry-picked samples (AID 1159567); type: functional, cell-based
# [13] = molecular target: T8, Rac GTPase-activating protein 1 (Homo sapiens, UniProt Q9H0H5); assay: blockers of MgcRacGAP-driven Rac1 GTP hydrolysis – biochemical, ADP Hunter fluorescence, primary and confirmatory, confirmation (AID 624330); type: functional
# T8 sequence (Q9H0H5 whole entry): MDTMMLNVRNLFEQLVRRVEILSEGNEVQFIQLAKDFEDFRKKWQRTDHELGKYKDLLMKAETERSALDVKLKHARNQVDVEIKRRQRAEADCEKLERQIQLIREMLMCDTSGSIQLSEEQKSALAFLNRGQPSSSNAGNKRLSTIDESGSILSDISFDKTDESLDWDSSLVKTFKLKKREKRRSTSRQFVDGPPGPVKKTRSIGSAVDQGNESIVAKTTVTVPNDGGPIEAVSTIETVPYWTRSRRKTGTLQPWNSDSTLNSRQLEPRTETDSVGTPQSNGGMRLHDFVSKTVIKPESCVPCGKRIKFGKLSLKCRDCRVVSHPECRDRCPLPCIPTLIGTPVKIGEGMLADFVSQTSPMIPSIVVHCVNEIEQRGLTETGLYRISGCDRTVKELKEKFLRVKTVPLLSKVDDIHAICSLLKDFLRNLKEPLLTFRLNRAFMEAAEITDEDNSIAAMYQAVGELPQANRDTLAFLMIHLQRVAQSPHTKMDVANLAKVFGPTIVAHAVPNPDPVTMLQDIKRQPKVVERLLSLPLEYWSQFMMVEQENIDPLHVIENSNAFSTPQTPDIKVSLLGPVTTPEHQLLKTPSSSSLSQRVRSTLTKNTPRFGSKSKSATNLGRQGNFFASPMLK
compound,measurement,setting,value
C/C(=N\OCC(=O)Nc1ccc(Br)cc1)c1cccs1,IC50,[1],> 50 µM (not active)
CC(=N\Nc1ccc(Cl)cc1)/C(=N/O)C(=O)Nc1ccccc1,AC50,[2],0.104 µM (active)
NC(=NOC(=O)c1ccc(Cl)cc1Cl)c1ccc(Cl)cc1,IC50,[3],> 100 µM (inactive)
same,IC50,Caspase-3,35.6 µM (active)
same,IC50,[4],> 100 µM (inactive)
same,IC50,[5],9.34 µM (active)
COc1ccc(-c2nc(NC(=O)CCNC(=O)c3ccco3)sc2C)cc1,IC50,[1],3.03 µM (not active)
Cc1ccc(C2SCC(=O)N2c2ccccc2)cc1 (stereo not drawn),IC50,[6],> 66 µM (inactive)
same,IC50,[7],> 66 µM (inactive)
same,AC50,[2],< 0.005 µM (active)
CN(C(S)=Nc1ccc(SC(F)F)cc1)c1ccc(O)cc1,IC50,[8],> 50 µM (not active)
Cc1ccc(NCc2ccc(O)c3ncccc23)cc1,EC50,[9],> 38 µM (not active)
same,EC50,[10],> 160 µM (inconclusive)
same,IC50,[8],> 50 µM (not active)
O=C(Cc1ccccc1)N1CC[C@H]2[C@H](CO)Nc3ccc(C4=CCCCC4)cc3[C@H]21,AC50,Paired box protein Pax-8,6.67 µM (active)
same,AC50,[11],51.3 µM (active)
Cc1ccc(NCc2nc3ccccc3n2CCOc2ccccc2)cc1,IC50,[8],> 50 µM (not active)
O=C(O)CCC(=O)N1CCN(c2ccc(C(=O)c3ccc(F)cc3)cc2)CC1,IC50,[1],> 50 µM (not active)
C[C@H](CO)N1C[C@H](C)[C@H](CN(C)Cc2ccc(Oc3ccccc3)cc2)Oc2ccc(NS(=O)(=O)c3ccc(Cl)cc3)cc2CC1=O,AC50,[12],7.51 µM (active)
O=C(CCc1c[nH]c2ccccc12)NCCc1ccc(O)cc1,IC50,[13],112 µM (active)
same,AC50,[2],7.62 µM (active)
[O-][S+](N1CCc2ccccc21)C12CC3CC(CC(C3)C1)C2 (stereo not drawn),IC50,[1],10.8 µM (not active)
C/C(=N\Nc1ccc([N+](=O)[O-])cc1)c1ccc(O)cc1,EC50,[9],> 38 µM (not active)
same,EC50,[10],> 150 µM (inactive)
same,AC50,[2],0.136 µM (active)
CSCc1ccc(C(=O)N2CCCC(Nc3ccc(F)cc3)C2)o1 (stereo not drawn),AC50,[2],2.76 µM (active)
CCN(CC)c1ccc(/C=N/NC(=O)CC(C)C)cc1,AC50,[2],2.97 µM (active)
Cc1ccc(N(CC(=O)Nc2cccc(C)c2)S(=O)(=O)c2cccc3nonc23)cc1,IC50,[1],1.1 µM (not active)
CN(c1ccc(O)cc1)c1nc(-c2cccnc2)cs1,IC50,[13],17.5 µM (active)
same,AC50,[2],3.84 µM (active)
CCOc1ccc(NC(=O)CCC(=O)n2nc(C)cc2C)cc1,IC50,[1],< 0.4 µM (not active)
COc1cccc(-c2ccc([C@@H]3[C@H](CO)N4CCCCN(C(=O)c5ccc(F)cc5)C[C@@H]34)cc2)c1,AC50,[12],5.39 µM (active)
Cc1ccc2c(c1)CCCN2C(=O)c1ccc2c(c1)OCO2,IC50,[1],> 50 µM (not active)
